How the values were obtained:
[1] = In vitro stability in liver microsomes, mouse; assay type: in vitro ADME; details: 1 μM
Method: (§1) 300 μL of the final incubation system contains 30 μL of liver microsomes (protein concentration: 5 mg/mL), 30 μL of NADPH+MgCl2, 3 μL of the test compound (in acetonitrile), and 237 μL of PBS buffer (pH 7.4). Among them, the proportion of the organic solvent (acetonitrile) was 1% (volume ratio). Samples were prepared in duplicate for each species (mouse, rat and human), with 0.3 mL each. […] 50 μL of the mixture was taken at 0 min, 15 min, 30 min and 60 min, and 300 μL of glacial acetonitrile containing an internal standard was added to terminate the reaction. 50 μL of the incubated sample was added with 300 μL of glacial acetonitrile containing an internal standard (20 ng/mL diazepam) for precipitation. The mixture was vortexed for 5 min, and centrifuged (13,000 rpm, 20° C.) for 10 min 70 μL of supernatant was taken and 70 μL of ultrapure water was added for dilution and homogeneous mixing. 1 μL of sample was injected for analysis.

[2] = system: human B-cell leukemia RS4;11 subcutaneous xenograft; experiment: Pharmacodynamics in human B-cell leukemia RS4;11 subcutaneous xenograft model; assay type: in vivo, NOD/SCID mice; details: 25 mg/kg p.o. single dose, Day 17 after end of treatment
Source text: NOD/SCID mice, female, aged 9-10 weeks (ages upon tumor cell grafting), body weight of 16.3-22.0 g. The mice were purchased from Beijing AniKeeper Biotech Co., Ltd. (production license number: SCXK (Jing) 2017-0006; animal certification number: 11402400013155). Breeding environment: SPF grade. Mice were grafted subcutaneously on the right anterior dorsal side with 1×10^7 RS4;11 cells. The day of grafting was defined as day 0. When the mean tumor volume was 240 mm^3, the mice were randomized by the tumor size. The administration was performed as per Table 16 below.
Clinical symptoms observed during the study were recorded in the raw data. Calculation formula for tumor volume: Tumor volume (mm^3)=½×(a×b^2) (where a represents long diameter and b represents short diameter). The data were collected using StudyDirector™ software (version No. 3.1.399.19, supplier: Studylog System, Inc., S.San Francisco, CA, USA) in the study, including measurements of the long and short diameters of the tumor and body weights of the animals. The raw data obtained from a balance and a vernier caliper were directly input into the software, and any change in the data was recorded. Relative tumor proliferation rate (T/C %) refers to the percentage of the relative tumor volume or tumor weight of the treatment and control groups at a certain time point. The calculation formula is as follows: T/C %=TRTV/CRTV×100%(TRTV:mean RTV for treatment group;CRTV:mean RTV for vehicle control group;RTV=Vt/V0, where V0 denotes the tumor volume of the animal upon grouping, and Vt denotes the tumor volume of the animal after treatment).
(T and C are the relative tumor volume (RTV) or tumor weight (TW) at a particular time point for the treatment and control groups, respectively).
All experimental results were expressed as mean tumor volume±SEM (standard error of mean). The relative tumor volume of the treatment group was compared with that of the control group for any significant difference by the independent sample T test. All the data were analyzed using SPSS 18.0. p<0.05 was defined as a significant difference.

[3] = In vitro stability in liver microsomes, rat; assay type: in vitro ADME; details: 1 μM
Method: as §1

[4] = system: human platelet caspase-3 activity; experiment: Human platelet toxicity study (caspase-3 activity assay); assay type: cell-based; details: human platelets, compound concentration 1 μM, 90 min; normalized, reference ABT-199
Method: 10 mL of human whole blood was collected using a heparin sodium anticoagulation tube, mixed well by turning upside down, and centrifuged at 90 g for 10 min. The supernatant was collected and centrifuged at 1950 g for 10 min. The supernatant was discarded, and the residue was resuspended in 4 mL of PBS, and centrifuged at 1190 g for 5 min. The procedure was repeated once. The supernatant was discarded, and the platelets were resuspended in PBS and adjusted to a density of 2-3×10^8 cells/mL. Cells were seeded into a 96-well plate at a density of […] and at 100 μL/well. 50 μL of control buffer was added to each negative control well, and 50 μL of compound at a corresponding concentration was added to each compound well to adjust the final concentration of the compound to 2.5 μM or 1 μM, followed by incubation in an incubator at 37° C. for 90 min. The liquids in the 96-well plate were transferred to 1.5 mL centrifuge tubes. […] The resulting mixture was mixed gently, and the plate was read by a PE Envision multi-functional microplate reader (excitation: 360 nm, emission: 460 nm) once every 10 min for 6 times. Caspase-3 activity was determined based on the intensity of the released AMC fluorescence, that is the slope of the fitted line to which each well corresponds represents Caspase activity (all data were normalized and the reference was ABT-199).

[5] = In vitro stability in liver microsomes, human; assay type: in vitro ADME; details: 1 μM
Method: as §1

Question: What does the source list for `CC1(C)CCC(CN2CCN(c3ccc(C(=O)NS(=O)(=O)c4ccc(NC[C@H]5COCCO5)c([N+](=O)[O-])c4)c(Oc4cnc5[nH]ccc5c4)c3)CC2)=C(c2ccc(C(F)(F)F)cc2Cl)C1` [Compound of formula I]?
Answer: Mouse Residuals at 60 min [1]: 73.9%; T/C [2]: 29.8%; TGI [2]: 70.2%; Tumor volume (x ± S) [2]: 600.39 ± 32.88 mm^3; Rat Residuals at 60 min [3]: 90.9%; Slope (caspase-3 activity) [4]: 0.59; Human Residuals at 60 min [5]: 86.3%

Source: patent publication US12545674B2, “Crystal of trifluoromethyl/chloro disubstituted sulfonamide selective BCL-2 inhibitor” (priority 2020, dated 2026)
